Assay results from the supplement of paper PMC10883282.
± gives the standard deviation of the averaged measurements.

Tested on: A204
Assay: relative viability vs DMSO control (72 h) (fraction); higher = more viable cells
How it was run: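 Sarcoma cell lines were plated in 384 wells to reach 80–90% confluence, treated after 24 h with 2.5 µl of serially diluted compound and held 72 h at 37 °C, 5% CO2. Relative viability was taken as percent growth from ATPLite readings, averaged over up to triplicate wells. The values were rescaled so that 1 marks full and 0 marks none.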

Nc1cc(C(F)(F)F)c(-c2cc(N3CCOCC3)nc(N3CCOCC3)n2)cn1 [Buparlisib]
relative viability (0.00017 µM): 1.05 ± 0.023 | relative viability (0.00051 µM): 1.03 ± 0.021 | relative viability (0.00152 µM): 1.05 ± 0.032 | relative viability (0.00457 µM): 1.02 ± 0.013 | relative viability (0.01372 µM): 1.03 ± 0.065 | relative viability (0.04115 µM): 1.01 ± 0.038 | relative viability (0.1235 µM): 0.879 ± 0.021 | relative viability (0.3704 µM): 0.673 ± 0.011 | relative viability (1.111 µM): 0.332 ± 0.066 | relative viability (3.333 µM): 0.174 ± 0.0058 | relative viability (10 µM): 0.155 ± 0.0086

Cc1cnc(Nc2ccc(OCCN3CCCC3)cc2)nc1Nc1cccc(S(=O)(=O)NC(C)(C)C)c1 [Fedratinib]
relative viability (0.00017 µM): 1.07 ± 0.066 | relative viability (0.00051 µM): 1.07 ± 0.022 | relative viability (0.00152 µM): 1.13 ± 0.041 | relative viability (0.00457 µM): 1.08 ± 0.035 | relative viability (0.01372 µM): 1.09 ± 0.017 | relative viability (0.04115 µM): 1.02 ± 0.034 | relative viability (0.1235 µM): 0.97 ± 0.035 | relative viability (0.3704 µM): 0.712 ± 0.088 | relative viability (1.111 µM): 0.396 ± 0.056 | relative viability (3.333 µM): 0.13 ± 0.016 | relative viability (10 µM): 0.0146 ± 0.0016

COc1cc2c(Oc3ccc4[nH]c(C)cc4c3F)ncnc2cc1OCCCN1CCCC1 [Cediranib]
relative viability (0.00017 µM): 1.086 ± 0.0095 | relative viability (0.00051 µM): 1.06 ± 0.017 | relative viability (0.00152 µM): 1.08 ± 0.064 | relative viability (0.00457 µM): 1.09 ± 0.024 | relative viability (0.01372 µM): 0.984 ± 0.051 | relative viability (0.04115 µM): 0.882 ± 0.09 | relative viability (0.1235 µM): 0.457 ± 0.0087 | relative viability (0.3704 µM): 0.336 ± 0.0094 | relative viability (1.111 µM): 0.251 ± 0.027 | relative viability (3.333 µM): 0.182 ± 0.0051 | relative viability (10 µM): 0.00917 ± 0.0011

CC(=O)Nc1cccc(-n2c(=O)n(C3CC3)c(=O)c3c(Nc4ccc(I)cc4F)n(C)c(=O)c(C)c32)c1 [Trametinib]
relative viability (0.00017 µM): 1.08 ± 0.084 | relative viability (0.00051 µM): 1.08 ± 0.05 | relative viability (0.00152 µM): 1.09 ± 0.034 | relative viability (0.00457 µM): 1.08 ± 0.035 | relative viability (0.01372 µM): 1.04 ± 0.047 | relative viability (0.04115 µM): 0.977 ± 0.06 | relative viability (0.1235 µM): 0.77 ± 0.071 | relative viability (0.3704 µM): 0.576 ± 0.024 | relative viability (1.111 µM): 0.544 ± 0.022 | relative viability (3.333 µM): 0.536 ± 0.0082 | relative viability (10 µM): 0.491 ± 0.015

CC(C)N1CCN(Cc2cnc(-c3cc(-c4cccc5[nH]ccc45)cc4[nH]ncc34)o2)CC1 [Nemiralisib]
relative viability (0.00017 µM): 0.981 ± 0.046 | relative viability (0.00051 µM): 0.988 ± 0.022 | relative viability (0.00152 µM): 0.998 ± 0.039 | relative viability (0.00457 µM): 0.982 ± 0.015 | relative viability (0.01372 µM): 0.97 ± 0.058 | relative viability (0.04115 µM): 0.97 ± 0.017 | relative viability (0.1235 µM): 0.956 ± 0.0079 | relative viability (0.3704 µM): 0.897 ± 0.03 | relative viability (1.111 µM): 0.847 ± 0.053 | relative viability (3.333 µM): 0.631 ± 0.035 | relative viability (10 µM): 0.359 ± 0.021

Cc1cc(Nc2ncnc3ccc(NC4=NC(C)(C)CO4)cc23)ccc1Oc1ccn2ncnc2c1 [Tucatinib]
relative viability (0.00017 µM): 1.092 ± 0.0055 | relative viability (0.00051 µM): 1.08 ± 0.021 | relative viability (0.00152 µM): 1.08 ± 0.024 | relative viability (0.00457 µM): 1.1 ± 0.016 | relative viability (0.01372 µM): 1.1 ± 0.012 | relative viability (0.04115 µM): 1.08 ± 0.011 | relative viability (0.1235 µM): 1.09 ± 0.025 | relative viability (0.3704 µM): 1.02 ± 0.052 | relative viability (1.111 µM): 1.02 ± 0.067 | relative viability (3.333 µM): 0.985 ± 0.13 | relative viability (10 µM): 0.636 ± 0.034

COc1cc2c(cc1O)CCN[C@]21CS[C@@H]2c3c(OC(C)=O)c(C)c4c(c3[C@H](COC1=O)N1[C@@H]2[C@H]2c3c(cc(C)c(OC)c3O)C[C@@H]([C@@H]1O)N2C)OCO4 [Trabectedin]
relative viability (2 pM): 1.08 ± 0.026 | relative viability (5 pM): 1.06 ± 0.03 | relative viability (15 pM): 1.05 ± 0.056 | relative viability (50 pM): 0.979 ± 0.02 | relative viability (0.00014 µM): 0.84 ± 0.031 | relative viability (0.00041 µM): 0.399 ± 0.17 | relative viability (0.0012 µM): 0.156 ± 0.13 | relative viability (0.0037 µM): 0.215 ± 0.0065 | relative viability (0.011 µM): 0.202 ± 0.014 | relative viability (200 fM): 1.07 ± 0.03 | relative viability (600 fM): 1.1 ± 0.043

C[C@@H]1COCCN1c1cc(-c2ccnn2C)c2ccnc(-c3ccn[nH]3)c2n1
relative viability (0.00017 µM): 1.07 ± 0.068 | relative viability (0.00051 µM): 1.05 ± 0.039 | relative viability (0.00152 µM): 1.07 ± 0.067 | relative viability (0.00457 µM): 1.08 ± 0.061 | relative viability (0.01372 µM): 1.03 ± 0.037 | relative viability (0.04115 µM): 0.903 ± 0.019 | relative viability (0.1235 µM): 0.668 ± 0.05 | relative viability (0.3704 µM): 0.431 ± 0.04 | relative viability (1.111 µM): 0.291 ± 0.015 | relative viability (3.333 µM): 0.231 ± 0.0066 | relative viability (10 µM): 0.222 ± 0.0062

Cc1cc(C)c(/C=C2\C(=O)Nc3ccccc32)[nH]1 [Semaxanib]
relative viability (0.00017 µM): 1.02 ± 0.067 | relative viability (0.00051 µM): 1.03 ± 0.021 | relative viability (0.00152 µM): 0.964 ± 0.055 | relative viability (0.00457 µM): 0.966 ± 0.067 | relative viability (0.01372 µM): 0.977 ± 0.052 | relative viability (0.04115 µM): 0.925 ± 0.075 | relative viability (0.1235 µM): 0.883 ± 0.015 | relative viability (0.3704 µM): 0.852 ± 0.032 | relative viability (1.111 µM): 0.823 ± 0.041 | relative viability (3.333 µM): 0.568 ± 0.043 | relative viability (10 µM): 0.33 ± 0.032
